EC50, IC50 and AC50 data for six molecules are collected here from ChEMBL document CHEMBL1201862, “PubChem BioAssay data set” (2004).

Calls of active or inactive are those of the source. Where only a bound is given, the exact number is not on record here.

In general, EC50 refers to the concentration that produces a half-maximal response. In general, IC50 refers to the concentration that gives 50% inhibition. The AC50 is the concentration at which the activity in the assay is half-maximal.

In data set [1] the target is T1, Apoptotic protease-activating factor 1 (Homo sapiens, UniProt O14727).
T1 sequence (O14727 whole entry): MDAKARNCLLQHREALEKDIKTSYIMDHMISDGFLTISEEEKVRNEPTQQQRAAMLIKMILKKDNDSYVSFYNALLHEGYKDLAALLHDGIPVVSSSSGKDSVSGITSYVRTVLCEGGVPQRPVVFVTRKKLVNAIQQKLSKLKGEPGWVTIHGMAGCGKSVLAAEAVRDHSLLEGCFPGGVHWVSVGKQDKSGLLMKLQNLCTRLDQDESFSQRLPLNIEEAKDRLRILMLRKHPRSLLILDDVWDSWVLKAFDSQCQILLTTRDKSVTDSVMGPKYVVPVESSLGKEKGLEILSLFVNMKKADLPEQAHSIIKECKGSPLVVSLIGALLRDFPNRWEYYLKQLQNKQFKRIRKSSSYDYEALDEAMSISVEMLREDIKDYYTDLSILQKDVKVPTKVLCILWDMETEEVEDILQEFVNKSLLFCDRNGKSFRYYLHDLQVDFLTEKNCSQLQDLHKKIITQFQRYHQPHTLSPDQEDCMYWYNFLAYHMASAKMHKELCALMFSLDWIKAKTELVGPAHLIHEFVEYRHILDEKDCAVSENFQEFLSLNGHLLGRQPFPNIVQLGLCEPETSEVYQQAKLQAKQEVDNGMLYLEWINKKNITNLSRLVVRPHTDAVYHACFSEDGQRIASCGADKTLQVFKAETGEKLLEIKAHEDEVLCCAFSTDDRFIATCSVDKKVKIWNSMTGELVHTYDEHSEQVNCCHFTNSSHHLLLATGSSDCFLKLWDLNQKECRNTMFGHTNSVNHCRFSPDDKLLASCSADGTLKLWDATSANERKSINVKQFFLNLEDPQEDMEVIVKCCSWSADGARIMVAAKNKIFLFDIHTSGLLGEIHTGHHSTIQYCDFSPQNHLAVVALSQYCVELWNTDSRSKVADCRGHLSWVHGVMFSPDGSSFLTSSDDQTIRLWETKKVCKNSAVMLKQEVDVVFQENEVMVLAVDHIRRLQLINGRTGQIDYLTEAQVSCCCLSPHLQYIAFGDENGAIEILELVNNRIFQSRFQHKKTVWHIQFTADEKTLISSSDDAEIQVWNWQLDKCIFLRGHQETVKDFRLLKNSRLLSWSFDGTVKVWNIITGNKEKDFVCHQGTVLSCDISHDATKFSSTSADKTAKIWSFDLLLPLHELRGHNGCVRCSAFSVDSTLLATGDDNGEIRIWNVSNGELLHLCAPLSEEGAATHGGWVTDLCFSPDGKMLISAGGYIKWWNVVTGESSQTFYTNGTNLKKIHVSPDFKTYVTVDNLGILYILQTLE
Briefly: activation of Apaf-1 mediated apoptosis – fluorescent, uHTS hits, dose response (AID 588554). Format: functional.

In data set [2] the target is T2, Mannose-6-phosphate isomerase (Homo sapiens, UniProt P34949).
T2 sequence (P34949 whole entry): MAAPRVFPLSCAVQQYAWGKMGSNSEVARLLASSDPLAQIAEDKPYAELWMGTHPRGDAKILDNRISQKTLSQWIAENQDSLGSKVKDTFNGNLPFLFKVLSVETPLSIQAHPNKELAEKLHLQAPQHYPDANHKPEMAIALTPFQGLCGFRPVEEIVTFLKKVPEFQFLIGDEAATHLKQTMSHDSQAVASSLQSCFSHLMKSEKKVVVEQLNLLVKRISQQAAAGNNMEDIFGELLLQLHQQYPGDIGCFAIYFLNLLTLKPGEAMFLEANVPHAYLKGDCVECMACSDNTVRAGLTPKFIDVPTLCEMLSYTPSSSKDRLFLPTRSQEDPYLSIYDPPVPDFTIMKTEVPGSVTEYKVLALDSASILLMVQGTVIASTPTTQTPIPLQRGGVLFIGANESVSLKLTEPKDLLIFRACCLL
Kind of data set: MPI inhibition at elevated mannose 6-phosphate – biochemical, fluorescence intensity, high mannose 6-phosphate, primary screen (AID 1220).

Data set [3] deals with Lysine-specific demethylase 4A (Homo sapiens, UniProt O75164). Kind of data set: inhibition of JMJD2A H3K9me3 demethylation – biochemical, DELFIA europium, cherry-picked samples, selectivity assay for GASC-1 inhibitor project, dose response (AID 488840).
Lysine-specific demethylase 4A, sequence (O75164 whole entry): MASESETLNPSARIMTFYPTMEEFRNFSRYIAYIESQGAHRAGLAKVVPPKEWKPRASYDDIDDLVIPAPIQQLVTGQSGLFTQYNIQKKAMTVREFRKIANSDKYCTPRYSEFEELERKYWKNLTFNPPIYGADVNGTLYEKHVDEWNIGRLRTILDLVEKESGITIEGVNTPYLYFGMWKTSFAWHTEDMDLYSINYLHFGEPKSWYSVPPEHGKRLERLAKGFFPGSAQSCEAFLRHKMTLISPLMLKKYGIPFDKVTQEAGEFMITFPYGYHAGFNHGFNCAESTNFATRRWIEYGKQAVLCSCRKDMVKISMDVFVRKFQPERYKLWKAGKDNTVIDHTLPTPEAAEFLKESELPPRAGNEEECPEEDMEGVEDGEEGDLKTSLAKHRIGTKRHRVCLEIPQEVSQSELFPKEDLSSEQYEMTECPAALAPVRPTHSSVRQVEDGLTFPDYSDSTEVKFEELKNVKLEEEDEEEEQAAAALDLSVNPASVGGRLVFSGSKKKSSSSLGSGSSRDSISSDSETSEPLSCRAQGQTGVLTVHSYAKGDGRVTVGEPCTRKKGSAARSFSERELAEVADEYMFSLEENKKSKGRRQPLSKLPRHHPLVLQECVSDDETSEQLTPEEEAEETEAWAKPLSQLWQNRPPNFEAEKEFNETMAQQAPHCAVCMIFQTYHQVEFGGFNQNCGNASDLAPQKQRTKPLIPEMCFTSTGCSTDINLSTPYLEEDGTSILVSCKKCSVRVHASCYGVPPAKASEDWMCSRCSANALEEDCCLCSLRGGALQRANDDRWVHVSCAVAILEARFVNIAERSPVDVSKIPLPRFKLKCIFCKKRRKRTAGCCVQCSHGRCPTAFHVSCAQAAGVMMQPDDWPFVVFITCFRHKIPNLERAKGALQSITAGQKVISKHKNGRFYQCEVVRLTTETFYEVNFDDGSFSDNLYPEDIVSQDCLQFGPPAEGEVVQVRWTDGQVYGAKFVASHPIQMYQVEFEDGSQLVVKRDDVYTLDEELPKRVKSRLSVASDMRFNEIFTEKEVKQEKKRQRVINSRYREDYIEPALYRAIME
The target in data set [4] is Lysine-specific demethylase 4C (Homo sapiens, UniProt Q9H3R0). Kind of data set: inhibition of JMJD2C H3K9me3 demethylation – biochemical, DELFIA europium, cherry-picked samples, dose response (AID 488835). Format: functional.
Lysine-specific demethylase 4C, sequence (Q9H3R0 whole entry): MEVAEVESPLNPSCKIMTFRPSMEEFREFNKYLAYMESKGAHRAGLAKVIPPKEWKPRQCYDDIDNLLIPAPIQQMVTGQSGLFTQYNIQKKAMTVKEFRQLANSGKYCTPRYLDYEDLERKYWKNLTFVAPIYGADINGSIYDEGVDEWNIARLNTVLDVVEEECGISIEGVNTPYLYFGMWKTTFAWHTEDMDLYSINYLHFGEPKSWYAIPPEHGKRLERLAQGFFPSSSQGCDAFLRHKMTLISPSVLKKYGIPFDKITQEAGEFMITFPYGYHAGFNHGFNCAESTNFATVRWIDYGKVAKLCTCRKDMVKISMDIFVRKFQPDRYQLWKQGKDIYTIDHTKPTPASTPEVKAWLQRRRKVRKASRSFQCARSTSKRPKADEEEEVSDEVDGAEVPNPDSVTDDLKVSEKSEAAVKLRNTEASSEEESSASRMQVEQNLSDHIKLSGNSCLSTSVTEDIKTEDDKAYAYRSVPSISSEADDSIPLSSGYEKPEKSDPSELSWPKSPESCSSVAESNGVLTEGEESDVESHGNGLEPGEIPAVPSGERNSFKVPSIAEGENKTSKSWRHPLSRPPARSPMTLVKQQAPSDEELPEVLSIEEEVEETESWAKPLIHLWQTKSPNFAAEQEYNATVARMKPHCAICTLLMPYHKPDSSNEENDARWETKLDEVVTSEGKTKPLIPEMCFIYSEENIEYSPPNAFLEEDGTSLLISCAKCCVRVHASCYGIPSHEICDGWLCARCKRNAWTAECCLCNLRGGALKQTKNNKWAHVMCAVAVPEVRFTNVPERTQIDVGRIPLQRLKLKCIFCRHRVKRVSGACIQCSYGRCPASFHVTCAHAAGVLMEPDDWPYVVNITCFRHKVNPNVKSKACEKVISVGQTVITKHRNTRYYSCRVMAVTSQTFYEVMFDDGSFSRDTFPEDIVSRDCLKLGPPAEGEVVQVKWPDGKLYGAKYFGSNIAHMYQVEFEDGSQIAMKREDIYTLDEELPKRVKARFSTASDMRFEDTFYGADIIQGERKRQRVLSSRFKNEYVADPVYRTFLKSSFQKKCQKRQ
The target in data set [5] is Intestinal-type alkaline phosphatase (Mus musculus, UniProt P24822). Briefly: PubChem AID 488875. Format: functional.
Intestinal-type alkaline phosphatase (Mus musculus, UniProt P24822), sequence (P24822 whole entry): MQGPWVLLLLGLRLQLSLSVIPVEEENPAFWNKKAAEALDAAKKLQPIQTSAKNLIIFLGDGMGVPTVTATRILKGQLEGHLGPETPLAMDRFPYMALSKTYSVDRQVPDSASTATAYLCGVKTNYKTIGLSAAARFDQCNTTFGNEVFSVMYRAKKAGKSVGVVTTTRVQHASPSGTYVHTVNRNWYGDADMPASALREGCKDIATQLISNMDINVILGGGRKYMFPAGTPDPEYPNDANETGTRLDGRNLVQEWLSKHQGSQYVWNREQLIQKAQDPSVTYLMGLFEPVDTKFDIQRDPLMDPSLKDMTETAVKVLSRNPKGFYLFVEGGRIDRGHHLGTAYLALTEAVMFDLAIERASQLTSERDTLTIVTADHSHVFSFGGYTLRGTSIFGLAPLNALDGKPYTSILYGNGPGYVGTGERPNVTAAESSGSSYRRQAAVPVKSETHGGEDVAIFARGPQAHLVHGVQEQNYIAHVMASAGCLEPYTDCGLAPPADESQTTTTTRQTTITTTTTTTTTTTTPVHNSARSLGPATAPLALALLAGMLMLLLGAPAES
The target in data set [6] is T3, Intestinal-type alkaline phosphatase (Homo sapiens, UniProt P09923). Kind of data set: human intestinal alkaline phosphatase activators, dose response, biochemical, luminescence, uHTS hits (AID 463120). The class given is functional.
T3 sequence (P09923 whole entry): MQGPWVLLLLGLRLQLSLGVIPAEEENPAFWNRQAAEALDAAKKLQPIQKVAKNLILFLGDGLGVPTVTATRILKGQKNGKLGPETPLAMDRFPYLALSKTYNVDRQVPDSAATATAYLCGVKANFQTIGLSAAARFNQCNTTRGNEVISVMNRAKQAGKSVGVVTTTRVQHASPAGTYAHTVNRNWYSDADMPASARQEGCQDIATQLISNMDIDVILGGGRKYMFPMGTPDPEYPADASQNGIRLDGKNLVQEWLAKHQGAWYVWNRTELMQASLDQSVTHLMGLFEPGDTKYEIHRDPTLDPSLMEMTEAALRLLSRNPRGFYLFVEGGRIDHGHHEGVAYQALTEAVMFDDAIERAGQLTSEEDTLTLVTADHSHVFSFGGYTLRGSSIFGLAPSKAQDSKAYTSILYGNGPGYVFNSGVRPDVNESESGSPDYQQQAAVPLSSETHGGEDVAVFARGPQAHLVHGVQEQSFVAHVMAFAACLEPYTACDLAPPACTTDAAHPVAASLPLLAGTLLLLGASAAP
Data set [7] deals with T3, Intestinal-type alkaline phosphatase. Briefly: activation of human intestinal alkaline phosphatase – biochemical, luminescent, uHTS hits, set 2, dose response (AID 488817).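 Note: potency of activators that raise enzyme activity.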 Format: functional.
The target of data set [8] is T4, Alkaline phosphatase, tissue-nonspecific isozyme (Homo sapiens, UniProt P05186).
T4 sequence (P05186 whole entry): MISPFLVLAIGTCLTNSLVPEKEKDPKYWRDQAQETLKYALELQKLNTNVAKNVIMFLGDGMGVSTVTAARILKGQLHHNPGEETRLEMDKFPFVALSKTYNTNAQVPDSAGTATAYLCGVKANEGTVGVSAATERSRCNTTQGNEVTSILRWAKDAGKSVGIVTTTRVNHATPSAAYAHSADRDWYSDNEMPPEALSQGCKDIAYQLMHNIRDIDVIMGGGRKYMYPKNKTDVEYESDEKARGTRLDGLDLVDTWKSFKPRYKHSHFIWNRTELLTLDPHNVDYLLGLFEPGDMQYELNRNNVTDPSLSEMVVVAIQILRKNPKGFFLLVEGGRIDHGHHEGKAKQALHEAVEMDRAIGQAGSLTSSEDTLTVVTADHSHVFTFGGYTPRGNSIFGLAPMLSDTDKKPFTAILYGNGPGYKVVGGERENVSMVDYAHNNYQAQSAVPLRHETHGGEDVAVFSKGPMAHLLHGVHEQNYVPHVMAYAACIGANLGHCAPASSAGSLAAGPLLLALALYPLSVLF
Kind of data set: activation of tissue-nonspecific alkaline phosphatase – biochemical, TNAP isozyme, human IAP uHTS hits, selectivity assay for human IAP activator project, dose response (AID 488886).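 Note: potency of compounds raising TNAP activity as a selectivity check on IAP activators.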 Format: functional.

The target of data set [9] is T5, Tyrosine-protein phosphatase non-receptor type 7 (Homo sapiens, UniProt P35236).
T5 sequence (P35236 whole entry): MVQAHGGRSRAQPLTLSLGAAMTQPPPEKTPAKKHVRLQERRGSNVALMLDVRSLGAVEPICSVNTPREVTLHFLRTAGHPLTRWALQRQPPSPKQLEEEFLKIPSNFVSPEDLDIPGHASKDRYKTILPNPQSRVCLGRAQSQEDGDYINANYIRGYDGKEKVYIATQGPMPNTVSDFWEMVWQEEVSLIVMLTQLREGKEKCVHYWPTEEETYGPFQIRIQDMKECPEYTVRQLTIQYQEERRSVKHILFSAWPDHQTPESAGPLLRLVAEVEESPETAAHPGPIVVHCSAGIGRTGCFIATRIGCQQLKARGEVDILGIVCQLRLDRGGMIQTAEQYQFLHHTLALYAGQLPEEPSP
The class given is functional.

The target of data set [10] is Glyceraldehyde-3-phosphate dehydrogenase (Homo sapiens, UniProt P04406).
Glyceraldehyde-3-phosphate dehydrogenase, sequence (P04406 whole entry): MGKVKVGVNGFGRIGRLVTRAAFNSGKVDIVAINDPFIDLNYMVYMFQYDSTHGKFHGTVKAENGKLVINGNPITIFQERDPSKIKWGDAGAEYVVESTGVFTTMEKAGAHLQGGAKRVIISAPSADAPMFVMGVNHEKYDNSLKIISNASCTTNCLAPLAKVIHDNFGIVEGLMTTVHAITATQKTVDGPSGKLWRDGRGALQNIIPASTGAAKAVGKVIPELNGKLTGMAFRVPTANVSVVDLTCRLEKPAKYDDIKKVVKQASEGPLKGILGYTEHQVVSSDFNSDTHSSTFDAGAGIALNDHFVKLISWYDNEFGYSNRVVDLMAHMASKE
The target of data set [11] is T6, Dual specificity protein phosphatase 6 (Rattus norvegicus, UniProt Q64346).
T6 sequence (Q64346 whole entry): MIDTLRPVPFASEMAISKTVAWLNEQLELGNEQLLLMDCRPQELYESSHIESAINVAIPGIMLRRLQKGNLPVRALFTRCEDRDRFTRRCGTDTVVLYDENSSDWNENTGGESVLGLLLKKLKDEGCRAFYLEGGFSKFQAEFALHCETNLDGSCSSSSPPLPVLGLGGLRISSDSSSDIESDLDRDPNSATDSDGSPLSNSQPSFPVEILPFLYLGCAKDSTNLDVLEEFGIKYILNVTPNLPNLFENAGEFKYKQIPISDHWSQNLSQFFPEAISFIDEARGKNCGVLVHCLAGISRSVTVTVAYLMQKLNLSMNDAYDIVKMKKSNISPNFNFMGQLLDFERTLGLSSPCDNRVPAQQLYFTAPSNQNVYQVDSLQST

In data set [12] the target is T6, Dual specificity protein phosphatase 6. Format: functional.
The target in data set [13] is Cytochrome P450 2C19 (Homo sapiens, UniProt P33261). Briefly: Cytochrome panel assay with activity outcomes. Panel member name: p450-cyp2c19 Compounds with AC50 equal or less than 10 uM are considered active. The class given is functional.
Cytochrome P450 2C19, sequence (P33261 whole entry): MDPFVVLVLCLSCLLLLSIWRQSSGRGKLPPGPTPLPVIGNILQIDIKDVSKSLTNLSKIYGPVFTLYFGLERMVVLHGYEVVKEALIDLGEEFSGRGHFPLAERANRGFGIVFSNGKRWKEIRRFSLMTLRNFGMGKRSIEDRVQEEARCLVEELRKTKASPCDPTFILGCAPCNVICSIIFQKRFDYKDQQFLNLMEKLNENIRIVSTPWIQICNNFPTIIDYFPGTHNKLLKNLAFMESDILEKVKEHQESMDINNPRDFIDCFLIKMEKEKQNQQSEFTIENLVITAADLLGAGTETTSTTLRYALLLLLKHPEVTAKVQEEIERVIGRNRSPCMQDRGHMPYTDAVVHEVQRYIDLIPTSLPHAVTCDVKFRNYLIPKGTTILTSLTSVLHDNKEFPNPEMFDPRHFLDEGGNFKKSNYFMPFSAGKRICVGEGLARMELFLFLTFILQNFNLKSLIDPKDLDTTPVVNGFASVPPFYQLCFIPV
Data set [14] has as its target Cytochrome P450 2D6 (Homo sapiens, UniProt P10635).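 Note: CYP2D6 member of a cytochrome P450 panel assay.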
The target in data set [15] is T7, Cytochrome P450 1A2 (Homo sapiens, UniProt P05177).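 Note: PubChem cytochrome P450 panel assay, CYP1A2 panel member.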
T7 sequence (P05177 whole entry): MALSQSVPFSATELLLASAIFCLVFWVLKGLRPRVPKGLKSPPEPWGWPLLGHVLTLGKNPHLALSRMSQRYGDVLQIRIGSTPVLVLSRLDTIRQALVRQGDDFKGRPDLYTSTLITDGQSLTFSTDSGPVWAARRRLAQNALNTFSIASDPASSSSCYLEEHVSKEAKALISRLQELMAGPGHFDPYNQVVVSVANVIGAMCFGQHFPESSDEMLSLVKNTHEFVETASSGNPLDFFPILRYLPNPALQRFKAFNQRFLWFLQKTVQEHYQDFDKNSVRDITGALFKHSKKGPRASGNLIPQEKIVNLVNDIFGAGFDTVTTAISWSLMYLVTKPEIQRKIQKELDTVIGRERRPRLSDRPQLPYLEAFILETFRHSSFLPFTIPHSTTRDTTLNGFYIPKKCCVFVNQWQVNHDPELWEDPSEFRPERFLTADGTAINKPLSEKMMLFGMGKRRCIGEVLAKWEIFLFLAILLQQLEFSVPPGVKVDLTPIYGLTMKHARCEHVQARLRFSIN

In data set [16] the target is Cytochrome P450 2C9 (Homo sapiens, UniProt P11712).
Cytochrome P450 2C9, sequence (P11712 whole entry): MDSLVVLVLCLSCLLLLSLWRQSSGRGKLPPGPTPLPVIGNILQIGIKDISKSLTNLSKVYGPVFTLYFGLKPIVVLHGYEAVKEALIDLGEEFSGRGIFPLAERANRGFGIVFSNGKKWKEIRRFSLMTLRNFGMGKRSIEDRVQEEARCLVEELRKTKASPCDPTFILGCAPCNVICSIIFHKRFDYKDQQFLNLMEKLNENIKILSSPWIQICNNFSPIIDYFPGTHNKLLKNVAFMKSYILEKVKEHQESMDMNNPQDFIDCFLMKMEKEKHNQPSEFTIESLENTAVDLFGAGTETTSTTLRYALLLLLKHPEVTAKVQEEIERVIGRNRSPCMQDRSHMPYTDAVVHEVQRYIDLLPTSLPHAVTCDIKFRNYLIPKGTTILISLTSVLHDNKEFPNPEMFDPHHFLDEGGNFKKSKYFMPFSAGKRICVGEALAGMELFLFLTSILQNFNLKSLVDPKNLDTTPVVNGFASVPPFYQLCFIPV
Data set [17] is described as follows: Luminescence Cell-Based Dose Retest to Confirm Inhibitors of Cancer Stem Cells. [Related pubchem assays (depositor defined):AID2717, AID2721]. The settings on record: Homo sapiens. The class given is functional.
The nature of data set [18]: viability loss of HMLE_sh_eGFP cells – cell-based, luminescence, counter-screen for HMLE_sh_ECad selective toxicity project, dose response (AID 463074).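 Note: HMLE human mammary epithelial cells expressing control shRNA against eGFP.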 The class given is functional, Homo sapiens. For orientation: A counterscreen serves to expose hits that act by an unwanted route or on another target.

Cytochrome P450 2D6, sequence (P10635 whole entry): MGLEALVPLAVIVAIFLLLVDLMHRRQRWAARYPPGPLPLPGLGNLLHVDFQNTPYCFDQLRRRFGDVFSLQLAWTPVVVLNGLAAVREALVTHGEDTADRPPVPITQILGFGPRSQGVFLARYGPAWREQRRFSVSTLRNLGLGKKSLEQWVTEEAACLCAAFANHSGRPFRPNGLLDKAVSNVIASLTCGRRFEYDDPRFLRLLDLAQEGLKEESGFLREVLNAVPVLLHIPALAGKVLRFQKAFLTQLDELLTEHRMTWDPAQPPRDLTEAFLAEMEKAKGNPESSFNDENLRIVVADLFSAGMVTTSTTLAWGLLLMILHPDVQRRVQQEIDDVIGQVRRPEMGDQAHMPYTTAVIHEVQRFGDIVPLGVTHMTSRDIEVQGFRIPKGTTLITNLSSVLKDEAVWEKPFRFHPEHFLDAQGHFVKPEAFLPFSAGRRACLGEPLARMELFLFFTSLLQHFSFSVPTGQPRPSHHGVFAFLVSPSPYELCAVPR

As for `Cc1cc(C)n(CC(C)C(=O)O)n1` (stereo not drawn), the EC50 in data set [1] is 10.9 µM (active).
Take `Cc1ccc2[nH]c(=O)c(C=C3C(=O)NC(=O)NC3=O)cc2c1`: the IC50 in data set [2] was > 50 µM (not active). For the same molecule, the concentration at half-maximal activity (AC50) is 26.9 µM (active) in [3] and 46.5 µM (active) in data set [4].
Consider `CC(C)(C)NC(=O)C(=O)NNC(=O)COc1ccccc1`, for which the EC50 in data set [5] was > 100 µM (inactive); in data set [6] it was 28 µM (active); in data set [7], 28.4 µM (active); in data set [8] it was 36.4 µM (active).
With `O=c1nc(NCCc2ccccc2)[nH]c(=O)n1-c1ccccc1`, the IC50 was > 100 µM (not active) in data set [9], > 100 µM (not active) in data set [10], > 100 µM (inactive) in data set [11] and > 100 µM (inactive) in data set [12].
Regarding `O=C(c1cc(C(F)(F)F)cc(C(F)(F)F)c1)N1CCC2(CC1)CN(c1ncccn1)C2`, the AC50 entry in data set [13], in data set [14], in data set [15] and in data set [16] was “inconclusive” in each case.
Turning to `O=C(CCS(=O)(=O)c1ccccc1)Nc1nc(-c2ccc(F)cc2)cs1`, the AC50 in data set [17] was 10.4 µM (active); in [18] it was 143 µM (active).
